Measurements taken from patent US20240376148A1, “MEDICAMENT FOR INHIBITING DIETARY OBESITY AND POLYPEPTIDE USED THEREFOR” (INSTITUTE OF ZOOLOGY, CHINESE ACADEMY OF SCIENCES, priority 2022, published 2024).

Tests used:
[1] = SPF mice feeding experiment (high-fat diet); assay type: in vivo, C57/B16J mice
Protocol: C57/B16J mice were used in the SPF mice experiment. At the beginning of the experiment, C57/B16J mice were 4 weeks old, and each weighed 15±1 g. They were raised in a room with suitable temperature and humidity control, and the light/dark cycle was 12 hours, free diet and drinking water, and fed with standard laboratory feed (also known as growth and reproduction feed, item number SPFSLFZ003, product of SPF (Beijing) Experimental Animal Technology Co., Ltd.). After one week of adaptation, they were randomly assigned to a cage, 4-6 mice per cage.
A total of 12 treatments were set up, each with 2 cages of C57/B16J mice, and each treatment was subjected to different feeding treatments, specifically as follows:
NC group (i.e. normal diet group): fed with standard laboratory feed (also known as growth and reproduction feed, SPFSLFZ003), free diet and drinking water, each intragastrically administrated with 0.2 ml solvent daily for 8 weeks.
HFD group (i.e. high-fat diet group): fed with high-fat diet, the high-fat diet used was rodent feed (containing 60% fat, D12492, formula reference Le Roy, T., et al. Dysosmobacter welbionis is a newly isolated human commensal bacterium preventing diet-induced obesity and metabolic disorders in mice. Gut (2021).), free diet and drinking water, each intragastrically administrated with 0.2 ml solvent daily for 8 weeks.
D1 group (i.e. high-fat diet+D1 intragastric administration group): fed with high-fat diet, free diet and drinking water. Intragastrically administrated with synthetic D1, 0.75 mg-3 mg/Kg body weight, 0.2 ml, once/day for 8 weeks.
D2 group (i.e. high-fat diet+D2 intragastric administration group): fed with high-fat diet, free diet and drinking water. Intragastrically administrated with synthetic D2, 0.75 mg-3 mg/Kg body weight, 0.2 ml, once/day for 8 weeks.
D3 group (i.e. high-fat diet+D3 intragastric administration group): fed with high-fat diet, free diet and drinking water. Intragastrically administrated with synthetic D3, 0.75 mg-3 mg/Kg body weight, 0.2 ml, once/day for 8 weeks.
D4 group (i.e. high-fat diet+D4 intragastric administration group): fed with high-fat diet, free diet and drinking water. Intragastrically administrated with synthetic D4, 0.75 mg-3 mg/Kg body weight, 0.2 ml, once/day for 8 weeks.
D5 group (i.e. high-fat diet+D5 intragastric administration group): fed with high-fat diet, free diet and drinking water. Intragastrically administrated with synthetic D5, 0.75 mg-3 mg/Kg body weight, 0.2 ml, once/day for 8 weeks.
D6 group (i.e. high-fat diet+D6 intragastric administration group): fed with high-fat diet, free diet and drinking water. Intragastrically administrated with synthetic D6, 0.75 mg-3 mg/Kg body weight, 0.2 ml, once/day for 8 weeks.
D7 group (i.e. high-fat diet+D7 intragastric administration group): fed with high-fat diet, free diet and drinking water. Intragastrically administrated with synthetic D7, 0.75 mg-3 mg/Kg body weight, 0.2 ml, once/day for 8 weeks.
D8 group (i.e. high-fat diet+D8 intragastric administration group): fed with high-fat diet, free diet and drinking water. Intragastrically administrated with synthetic D8, 0.75 mg-3 mg/Kg body weight, 0.2 ml, once/day for 8 weeks.
D9 group (i.e. high-fat diet+D9 intragastric administration group): fed with high-fat diet, free diet and drinking water. Intragastrically administrated with synthetic D9, 0.75 mg-3 mg/Kg body weight, 0.2 ml, once/day for 8 weeks.
D10 group (i.e. high-fat diet+D10 intragastric administration group): fed with high-fat diet, free diet and drinking water. Intragastrically administrated with synthetic D10, 0.75 mg-3 mg/Kg body weight, 0.2 ml, once/day for 8 weeks.
The feed intake was tracked every week. After the experiment, the mice were weighed and photographs were taken to compare the body size of the mice. After that, the mice were killed by cervical dislocation. […]

A. muciniphila [2] = assay: qPCR of abundance of A. muciniphila in intestine of rats; assay type: in vivo, Sprague Dawley (SD) rats; conditions: figure d of FIG. 7 (rats), p<0.05
Text: (§1) FIGS. 7A-7H are a graph showing the effect of using D3 on rats and rhesus monkeys in Example 2 of the present invention. FIG. 7A is the schematic diagram of sampling time point in rats; FIG. 7B is the graph showing the results of the growth rate of body weight with different feeding treatments of the rat; FIG. 7C is the graph showing the results of the short-term feed intake measurement of the rat; FIG. 7D is the graph showing the results of the qPCR detection of the abundance of A. muciniphila in intestine of rats with different feeding treatment; FIG. 7E is a schematic diagram of the sampling time point in rhesus monkeys; FIG. 7F is the graph showing the results of the growth rate of body weight with different feeding treatments of rhesus monkeys; FIG. 7G is the feed intake monitoring graphs of rhesus monkeys with different feeding treatments; FIG. 7H is the graph showing the results of the qPCR detection of the abundance of A. muciniphila in intestine of rhesus monkeys with different feeding treatment. The data shown in the figure are mean±standard deviation, the number of repetitions is 5-10, and the significant difference of each group is analyzed by Wilcoxon test. * representing a significance analysis result of P<0.05, ** representing a significance analysis result of P<0.01.
Body weights were monitored weekly. […]

[3] = Short-term feed intake experiment of SPF rats; assay type: in vivo; conditions: after 8 weeks of treatment, p<0.05
Text: A total of 2 treatments were set up, with 5 rats in each treatment, and each treatment was subjected to different feeding treatments, specifically as follows:
HFD group (i.e. high-fat diet group): 8 rats were fed with high-fat diet, the high-fat diet used was rodent feed (containing 60 kcal % fat, D12492), free diet and drinking water for 8 weeks.
D3 group (i.e. high-fat diet+D3 medicine intragastric administration group): 10 rats were fed with high-fat diet, free diet and drinking water. Intragastrically administrated with HD (choose D3), 0.5 mg-2 mg/Kg body weight, 0.5 ml, once/day for 8 weeks.
According to the above treatment, it was carried out for 8 weeks, and then within 1 week, the rats were starved for one day and then given feed, and the feed intake of the animals in the following day was recorded. That is, food weights were recorded every other day (4 separate measurements) and the average daily intake was determined for each 2-day period and calculated for each individual during the one-week measurement period. The obtained were the results of the short-term intake statistics (unit: g/only/day).

A. muciniphila [4] = assay: qPCR of abundance of A. muciniphila in intestine of rhesus monkeys; assay type: in vivo; conditions: macaque, p<0.05
Text: as §1
Food intake (unit: g/only/week) and body weight were monitored weekly. […]

UGN = assay: ELISA detection of serum UGN in macaques; assay type: in vivo; conditions: macaque, not significant (p=0.06)

For RTRYCRTGR [D3], the “body size compared with the HFD group” value ([1]; 8 weeks) was “smaller than that of the HFD group”, the “subcutaneous and visceral fat weight (inguinal subcutaneous, epididymis, perirenal) vs HFD group” value ([1]; 8 weeks) was “significantly lower than that of the HFD group” and the “weekly feed intake vs control HFD group” value ([1]; after 3-4 weeks) was “significant difference in feed intake”. The “body weight decrease compared with the HFD group” value ([1]; intragastric 0.75 mg-3 mg/Kg once/day, after 8 weeks) was 12.06%, the “relative abundance of A. muciniphila in the intestine by qPCR” value (A. muciniphila [2]) was “significantly increased” and the “daily feed intake (short-term) vs HFD group” value [3] was “significantly lower”. The “relative abundance of A. muciniphila in the intestine by qPCR” value (A. muciniphila [4]) was “significantly increased” and the “UGN levels in the serum” value (UGN) was “Increased”.
